Test results published in patent US20140322252A1, “Peptides for Treating Alzheimers's Disease and Related Conditions” (priority 2013, published 2014).

Columns and labels:
[1] = system: rats with partial ligation of the sciatic nerve; conditions: cited from earlier work
CCR2 = CCR2 (Homo sapiens, UniProt P41597); conditions: published, Padi 2012; cited from earlier work
[2] = Pharmacokinetic study of RAP-103 in male Sprague Dawley rat, LC-MS/MS; assay type: in vivo
Description: A pharmacokinetic study of all-D-TTNYT (SEQ ID NO:2) (RAP-103) following intravenous and oral administration was conducted at a target dose level of 1 mg/kg in the male Sprague Dawley rat. The concentration of RAP-103 in each plasma and brain sample was measured using a suitable LC-MS/MS assay. The assay used was a research grade assay (RGA-1) which was established by assessing the accuracy, precision and the linearity of the method. Plasma concentrations generated were used to evaluate the pharmacokinetic parameters of all-D-TTNYT (SEQ ID NO:2) (RAP-103).
The dose formulation was administered intravenously to some animals as a slow bolus over ca 30 s via the tail vein and to a different group of animals orally via gastric gavage at a target dose volume of 1 mL/kg, to achieve a target dose level of 1 mg/kg. The dose volume administered was calculated according to the bodyweight of the animal on the day of dosing. The weight of administered dose was recorded. […] Results of the study show oral boavailibity of the all-D-peptide was achieved, results are in Table 1

[3] = system: cofilin-actin rods in hippocampal neurons
[4] = system: APPSwDI/NOS2−/− transgenic mouse; conditions: 0.4 mg/kg p.o. once-a-day, 9 months of age, RAWM
Description: We tested yet a further all-D-amino acid modified peptide for oral bioavailability and protection to memory losses in an animal AD model.
Both Transgenic (CVN) and wild-type (WT) mice were used: WT mice were treated orally (p.o.) with vehicle; while CVN mice treated p.o. with either vehicle or treated p.o. with RAP-310, 0.4 mg/kg. At the age of 4.5 to 5 months the mice were subjected to once-a-day oral vehicle or RAP-310. After 1 month of treatment, starting at the age of 6 months, the mice were subjected to radial arm water maze testing.

CCR8 = target: T1, CCR8 (Homo sapiens, UniProt P51685); assay type: cell-based; conditions: for inhibition of CCL1 (I-309) mediated chemotaxis / CCR8 function: M2 type monocyte derived macrophages, CCL1 1 nM
T1 construct: required maturation with M-CSF for 48 hrs to up-regulate expression of CCR8; endogenous in cells; host or cells: human monocytes isolated by Ficoll-Percoll gradient, matured with M-CSF for 48 hours (M2-type macrophages)
Description: Human monocytes isolated by Ficoll-Percoll gradient were cultured in complete growth medium (RPMI1640, supplemented with 10% FBS and 4 mM L-glutamine) in presence of M-CSF for 48 hours. Resting monocytes, as freshly isolated, were not responsive to CCL1, which required maturation with M-CSF for 48 hrs to up-regulate expression of CCR8, so-called “M2” type macrophages. […] The data represent the mean of triplicate determinations of a representative experiment.

LPS-infused rats = conditions: 0.01 mg/kg, s.c., 14 days, cited from earlier work
[5] = system: NBM lesioned aged Sprague-Dawley rats; conditions: bilateral NBM lesions, 1 mg IP daily for 5 months; cited from earlier work
[6] = system: CCL2 (MCP-1) chemotaxis of human monocytes; experiment: CCL2-mediated human monocyte chemotaxis (FIG. 1); assay type: cell-based; conditions: FIG. 1, direct comparison among all RAPs
Description: Triplicate determinations were made and results are expressed as the mean plus or minus SEM. The experiment shown is a direct comparison among all RAPs. Statistical analysis was by unpaired t-test, with significance set at the p<0.01 (*) level for difference from CCL2 only chemotaxis.

T1 sequence (P51685 whole entry): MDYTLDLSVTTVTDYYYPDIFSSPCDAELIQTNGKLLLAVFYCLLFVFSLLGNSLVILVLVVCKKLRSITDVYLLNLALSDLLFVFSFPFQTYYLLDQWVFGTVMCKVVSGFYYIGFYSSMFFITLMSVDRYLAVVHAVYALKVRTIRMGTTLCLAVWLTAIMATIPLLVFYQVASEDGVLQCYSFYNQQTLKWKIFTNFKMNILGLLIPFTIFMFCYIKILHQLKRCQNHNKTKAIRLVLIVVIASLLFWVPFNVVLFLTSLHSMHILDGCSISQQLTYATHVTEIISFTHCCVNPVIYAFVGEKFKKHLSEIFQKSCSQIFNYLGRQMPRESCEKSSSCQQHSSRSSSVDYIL
Chain of CCR2 (P41597 whole entry): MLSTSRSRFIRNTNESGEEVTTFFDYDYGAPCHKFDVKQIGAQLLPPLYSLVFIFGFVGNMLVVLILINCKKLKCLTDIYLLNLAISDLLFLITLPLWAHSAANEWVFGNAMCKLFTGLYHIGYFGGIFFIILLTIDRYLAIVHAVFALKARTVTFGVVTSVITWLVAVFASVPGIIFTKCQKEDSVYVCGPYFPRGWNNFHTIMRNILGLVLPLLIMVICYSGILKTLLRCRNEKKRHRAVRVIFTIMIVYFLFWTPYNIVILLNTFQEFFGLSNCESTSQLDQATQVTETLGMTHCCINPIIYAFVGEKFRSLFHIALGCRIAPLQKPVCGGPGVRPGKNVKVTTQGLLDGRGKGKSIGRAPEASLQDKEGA

Row | Molecule | already established hypersensitivity ([1]; 0.2-1 mg/kg, days 8 to 12) | development of thermal hyperalgesia ([1]; oral 0.05-1 mg/kg for 7 days) | mechanical allodynia ([1]; oral 0.05-1 mg/kg for 7 days) | spinal microglial activation and monocyte infiltration ([1]; peripheral nerve injury) | activity to block MCP-1 human monocyte chemotaxis (CCR2) | concentration in male rat plasma ([2]; intravenous, 1 mg/kg, nominal time 0.5 h, individual animals) | time of peak plasma levels ([2]; rat, 1 mg/kg) | detection in plasma ([2]; rat, 5 minutes (0.083 hrs) after dosing, continues at 1 hr) | EC50 [3] | block of TNFα caused cofilin-actin rod stress response [3] | less errors in block 5 compared to CVN vehicle treated mice [4] | less errors in sum scores for Day 1 compared to CVN vehicle treated mice [4] | potency to block CCR8 compared with DAPTA (CCR8; FIG. 3) | inhibition of CCL1 (I-309) mediated chemotaxis / CCR8 function (CCR8) | number of activated microglia and astrocytes (LPS-infused rats; vs vehicle) | number of immunoreactive cells expressing NfKb (LPS-infused rats) | lesion-induced decreases in cortical thickness [5] | loss of large neurons in layer V [5] | potency to block CCL2 (MCP-1) chemotaxis [6] | potency to block CCL2 (MCP-1) chemotaxis ([6]; listed as RAP-101)
1 | C[C@H](O)[C@@H](N)C(=O)N[C@@H](C(=O)N[C@H](CC(N)=O)C(=O)N[C@H](Cc1ccc(O)cc1)C(=O)N[C@@H](C(=O)O)[C@H](C)O)[C@H](C)O [RAP-103, All-D-TTNYT] | reverses | inhibits | fully prevents | reduce | block | 561 ng/mL | 10 to 15 min | detected | – | – | – | – | – | – | – | – | – | – | – | –
2 | C[C@H](O)[C@@H](NC(=O)[C@@H](Cc1ccc(O)cc1)NC(=O)[C@@H](CC(N)=O)NC(=O)[C@H](NC(=O)[C@H](NC(=O)[C@H](NC(=O)[C@@H](CO)NC(=O)[C@@H](C)N)[C@H](C)O)[C@H](C)O)[C@H](C)O)C(=O)O [RAP-310] | – | – | – | – | – | – | – | – | ~0.1 pM | comparably blocked | 50% | 30% | comparable potency | Inhibit | – | – | – | – | – | –
3 | D-ala1-STTTNYT-NH2 [DAPTA] | – | – | – | – | – | – | – | – | – | – | – | – | – | Inhibit | dramatically reduced | reduced | prevented or attenuated | attenuated | most potent | greater potency
